Test results reported in patent publication US11406594B2, “Oleogel compositions for retinal drug delivery” (University of Florida Research Foundation, Inc., priority 2017, dated 2022).
Structures can show the parent of a compound that is named as a salt. Where two headings read alike, the source gives them in different places.

What was measured:
[1] = Solubility limit of drug in oil phase of drug delivery composition (microscopy for visible drug particles)
Description: (§1) A significant parameter for the behavior of the disclosed drug delivery compositions is drug solubility in an aqueous environment and in hydrophobic environment, such as the soybean oil used in the examples described herein. Without wishing to be bound by a particular theory, it is possible that diffusion of the drug in the external medium (PBS) is a rate limiting step. Accordingly, solubility of the drug in this phase is crucial for modeling calculations of drug release. Solubility in the oil phase was estimated by preparing drug delivery compositions with different concentrations of drug, and observing the samples under a microscope.

[2] = Solubility limit of drug in PBS; conditions: 25 °C, aqueous buffer
Description: as §1

[3] = apparent wt %, soybean oil phase, estimated from visible drug particles

C[C@@H]1C[C@H]2[C@@H]3CCC4=CC(=O)C=C[C@]4(C)[C@@]3(F)[C@@H](O)C[C@]2(C)[C@@]1(O)C(=O)CO [Dexamethasone]
Solubility Limit in Oil Phase of Drug Delivery Composition [1, 3]: 1%-3%

C[C@@H]1C[C@H]2[C@@H]3CCC4=CC(=O)C=C[C@]4(C)[C@@]3(F)[C@@H](O)C[C@]2(C)[C@@]1(O)C(=O)COP(=O)(O)O [Dexamethasone Phosphate]
solubility ([2]; PBS): > 89 µg/mL | Solubility Limit in Oil Phase of Drug Delivery Composition [1]: <0.1%

CC(C)(C)NC[C@H](O)COc1nsnc1N1CCOCC1 [Timolol Maleate]
solubility ([2]; PBS): > 89 µg/mL | Solubility Limit in Oil Phase of Drug Delivery Composition [1, 3]: 0.1%-1%

CN[C@H](CC(C)C)C(=O)N[C@H]1C(=O)N[C@@H](CC(N)=O)C(=O)N[C@H]2C(=O)N[C@H]3C(=O)N[C@H](C(=O)N[C@H](C(=O)O)c4cc(O)cc(O)c4-c4cc3ccc4O)[C@H](O)c3ccc(c(Cl)c3)Oc3cc2cc(c3O[C@@H]2O[C@H](CO)[C@@H](O)[C@H](O)[C@H]2O[C@H]2C[C@](C)(N)[C@H](O)[C@H](C)O2)Oc2ccc(cc2Cl)[C@H]1O [Vancomycin Hydrochloride]
solubility [2]: > 89 µg/mL
